Each structure is given as a SMILES string.

For one assay, the system named is HCT-116 human colorectal carcinoma cells. Put plainly: Cell proliferation assay, Alamar Blue, HCT-116.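 Further: cells exposed to compound for about 4 days, then Alamar Blue added and fluorescence read after about 4 h, medium-only wells as control.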 It counts as cell-based. The note with it: HCT-116, Table 16, first HCT-116 column. In general terms: Alamar Blue is a resazurin reagent that responds to reducing activity.
As to `c1ccc(Nc2nc3ccccc3c3sccc23)cc1`, the IC50 is > 10 µM.

As for `CCN(c1ccccc1)c1nc2cc(C(=O)O)ccc2c2sccc12`, the IC50 is > 10 µM.

For the compound `N#Cc1ccc2c(c1)nc(Nc1ccccc1)c1ccsc12`, the IC50 was > 10 µM.

With `COc1ccc(Nc2nc3cc(-c4nnn[nH]4)ccc3c3sccc23)cc1Cl`, the IC50 was > 10 µM.

For the compound `O=C(O)c1ccc2c(c1)nc(NCCN1CCOCC1)c1ccsc12`, the IC50 is > 10 µM.

As for `CN(c1ccccc1)c1nc2cc(C(=O)O)ccc2c2sccc12`, the IC50 is > 10 µM.

`NC(=O)c1ccc2c(c1)nc(Nc1ccccc1)c1ccsc12` showed an IC50 of 9 µM.

As for `O=C(O)c1ccc2c(c1)nc(OCCCO)c1ccsc12`, the IC50 is > 10 µM.

With `O=C(O)c1ccc2c(c1)nc(N1CCOCC1)c1ccsc12`, the IC50 is > 10 µM.

On to `O=C(O)c1ccc2c(c1)nc(NCc1cccnc1)c1ccsc12`, for which the IC50 is > 10 µM.

Consider `O=C(O)c1ccc2c(c1)nc(NC1CC1)c1ccsc12`, for which the IC50 was > 10 µM.

Take `COc1cccc(Nc2nc3cc(-c4nnn[nH]4)ccc3c3sccc23)c1`: the IC50 was > 10 µM.

With `O=C(NCCCO)c1ccc2c(c1)nc(NCCCO)c1ccsc12`, the IC50 was > 10 µM.

In the case of `O=C(O)c1ccc2c(c1)nc(NCCc1ccccc1)c1ccsc12`, the IC50 was > 10 µM.

For `Clc1nc2ccccc2c2sccc12`, the IC50 was > 10 µM.

As for `COc1ccc(Nc2nc3cc(C(=O)O)ccc3c3sccc23)cc1Cl`, the IC50 is > 10 µM.

For the compound `CN(C)CCNc1nc2ccccc2c2sccc12`, the IC50 came out at 2 µM.

With `Cc1ccccc1Nc1nc2cc(C(=O)O)ccc2c2sccc12`, the IC50 was > 10 µM.

On to `O=C(O)c1ccc2c(c1)nc(Nc1nc3ccccc3[nH]1)c1ccsc12`, for which the IC50 is > 10 µM.

`O=C(O)c1ccc2c(c1)nc(Nc1ccc(F)cc1)c1ccsc12`: the half-inhibitory concentration (IC50) is > 10 µM.

Take `O=C(O)c1ccc2c(c1)nc(N1CCCC1)c1ccsc12`: the IC50 is > 10 µM.

Turning to `O=C(O)c1ccc2c(c1)nc(NCCN1CCCC1)c1ccsc12`, the IC50 is > 10 µM.

On to `O=C(O)c1ccc2c(c1)nc(NCCCO)c1ccsc12`, for which the IC50 was > 10 µM.

As to `N#Cc1ccc2c(c1)nc(Cl)c1ccsc12`, the IC50 is > 10 µM.

For `O=C(O)c1ccc2c(c1)nc(Nc1ccc(F)cc1F)c1ccsc12`, the IC50 was > 10 µM.

For the compound `COC(=O)c1ccc2c(c1)nc(Cl)c1ccsc12` [drawing 842], the IC50 is > 10 µM.

For `Fc1ccc(Nc2nc3cc(-c4nnn[nH]4)ccc3c3sccc23)cc1Cl`, the IC50 is > 10 µM.

For `Clc1ccc(Nc2nc3cc(-c4nnn[nH]4)ccc3c3sccc23)cc1`, the IC50 was > 10 µM.

For the compound `O=C(O)c1ccc2c(c1)nc(Nc1ccc(N3CCOCC3)cc1)c1ccsc12`, the IC50 is > 10 µM.

For `COc1ccc(Nc2nc3cc(C(=O)O)ccc3c3sccc23)c(OC)c1`, the IC50 is > 10 µM.

`COC(=O)c1ccc2c(c1)nc(Nc1ccccc1)c1ccsc12`: the IC50 was > 10 µM.

Take `O=c1[nH]c(-c2ccc3c(c2)nc(Nc2ccccc2)c2ccsc23)no1`: the IC50 was > 10 µM.

Consider `O=C(O)c1ccc2c(c1)nc(NCc1ccncc1)c1ccsc12`, for which the IC50 was > 10 µM.

Turning to `O=C(O)c1ccc2c(c1)nc(NCc1ccccn1)c1ccsc12`, the IC50 is > 10 µM.

For `CN(C)CCNc1nc2cc(-c3nnn[nH]3)ccc2c2sccc12`, the IC50 was > 10 µM.

Turning to `O=C(O)c1ccc2c(c1)nc(NCCO)c1ccsc12`, the IC50 is > 10 µM.

As for `O=C(O)c1ccc2c(c1)nc(Nc1cccc(O)c1)c1ccsc12`, the IC50 was > 10 µM.

In the case of `Fc1ccc(Nc2nc3cc(-c4nnn[nH]4)ccc3c3sccc23)cc1`, the IC50 was > 10 µM.

As to `O=C(O)c1ccc2c(c1)nc(N1CCc3ccccc31)c1ccsc12`, the IC50 is > 10 µM.

With `COc1ccc(OC)c(Nc2nc3cc(C(=O)O)ccc3c3sccc23)c1`, the IC50 is > 10 µM.

Turning to `O=C(O)c1ccc2c(c1)nc(Nc1ccccc1O)c1ccsc12`, the IC50 is > 10 µM.

As for `CS(=O)(=O)NC(=O)c1ccc2c(c1)nc(Nc1ccccc1)c1ccsc12`, the IC50 is > 10 µM.

Turning to `O=C(O)CNc1nc2cc(C(=O)O)ccc2c2sccc12`, the IC50 was > 10 µM.

For the compound `O=C(O)c1ccc2c(c1)nc(Nc1ccc(Cl)cc1)c1ccsc12`, the IC50 is > 10 µM.

Consider `COc1ccccc1Nc1nc2cc(C(=O)O)ccc2c2sccc12`, for which the IC50 is > 10 µM.

The assay is the same for the next values; noted with them: HCT-116, Table 16, second HCT-116 column.
As to `O=C(O)c1ccc2c(c1)nc(Nc1cccc(C(=O)N3CCOCC3)c1)c1ccsc12`, the IC50 is > 10 µM.

As to `COc1cc(Nc2nc3cc(-c4nnn[nH]4)ccc3c3sccc23)ccc1F`, the IC50 was > 10 µM.

In the case of `CN(C)CCNC(=O)c1cccc(Nc2nc3cc(C(=O)O)ccc3c3sccc23)c1`, the IC50 is > 10 µM.

As for `O=C(O)c1ccc2c(c1)nc(Nc1cccc(C(=O)NC3CC3)c1)c1ccsc12`, the IC50 is > 10 µM.

Consider `O=C(O)CNC(=O)c1cccc(Nc2nc3cc(C(=O)O)ccc3c3sccc23)c1`, for which the IC50 was > 10 µM.

Consider `C#Cc1cccc(Nc2nc3cc(C(=O)O)ccc3c3sccc23)c1` [drawing 967], for which the IC50 was > 10 µM.

On to `c1cc2c(Nc3ccc4c(c3)OCCO4)nc3cc(-c4nnn[nH]4)ccc3c2s1`, for which the IC50 was > 10 µM.

For `O=C(O)c1ccc2c(c1)nc(Nc1cccc(Oc3ccccc3)c1)c1ccsc12`, the IC50 was > 10 µM.

Take `CCCNC(=O)c1cccc(Nc2nc3cc(C(=O)O)ccc3c3sccc23)c1`: the IC50 was > 10 µM.

With `COC(=O)c1ccc2c(c1)nc(Nc1ccccc1)c1ncsc12`, the IC50 was > 10 µM.

On to `CCc1cccc(Nc2nc3cc(-c4nnn[nH]4)ccc3c3sccc23)c1`, for which the IC50 was > 10 µM.

As to `CCOc1cccc(Nc2nc3cc(-c4nnn[nH]4)ccc3c3sccc23)c1`, the IC50 is > 10 µM.

As to `CC(C)Oc1cccc(Nc2nc3cc(-c4nnn[nH]4)ccc3c3sccc23)c1`, the IC50 was > 10 µM.

The assay is the same for the next values; noted with them: HCT-116, Table 18.
Regarding `CNc1ncc2c(n1)c(NC1CC1)nc1cc(C(=O)O)ccc12`, the IC50 is > 10 µM.

`CN(C)CCNc1nc2cc(-c3nnn[nH]3)ccc2c2cnccc12`: the IC50 is > 10 µM.

For `CN(C)CCNc1nc2cc(C#N)ccc2c2cnccc12`, it took 1.6 µM to reach half-maximal inhibition (IC50).

The target of another assay is PARP (Homo sapiens (Human), UniProt P09874). Put plainly: PARP assay (chemiluminescent PARP assay kit, Trevigen). It counts as biochemical. The note with it: 1 uM; Table 12; read-out: PARP % inhib @ 1 uM. The method, then: Modulatory activity of compounds described herein was assessed in vitro in cell-free CK2 assays. Modulatory activity of compounds described herein also are assessed in vitro in cell-free PARP assays. These assays are described hereafter.
Sequence of PARP (P09874 whole entry): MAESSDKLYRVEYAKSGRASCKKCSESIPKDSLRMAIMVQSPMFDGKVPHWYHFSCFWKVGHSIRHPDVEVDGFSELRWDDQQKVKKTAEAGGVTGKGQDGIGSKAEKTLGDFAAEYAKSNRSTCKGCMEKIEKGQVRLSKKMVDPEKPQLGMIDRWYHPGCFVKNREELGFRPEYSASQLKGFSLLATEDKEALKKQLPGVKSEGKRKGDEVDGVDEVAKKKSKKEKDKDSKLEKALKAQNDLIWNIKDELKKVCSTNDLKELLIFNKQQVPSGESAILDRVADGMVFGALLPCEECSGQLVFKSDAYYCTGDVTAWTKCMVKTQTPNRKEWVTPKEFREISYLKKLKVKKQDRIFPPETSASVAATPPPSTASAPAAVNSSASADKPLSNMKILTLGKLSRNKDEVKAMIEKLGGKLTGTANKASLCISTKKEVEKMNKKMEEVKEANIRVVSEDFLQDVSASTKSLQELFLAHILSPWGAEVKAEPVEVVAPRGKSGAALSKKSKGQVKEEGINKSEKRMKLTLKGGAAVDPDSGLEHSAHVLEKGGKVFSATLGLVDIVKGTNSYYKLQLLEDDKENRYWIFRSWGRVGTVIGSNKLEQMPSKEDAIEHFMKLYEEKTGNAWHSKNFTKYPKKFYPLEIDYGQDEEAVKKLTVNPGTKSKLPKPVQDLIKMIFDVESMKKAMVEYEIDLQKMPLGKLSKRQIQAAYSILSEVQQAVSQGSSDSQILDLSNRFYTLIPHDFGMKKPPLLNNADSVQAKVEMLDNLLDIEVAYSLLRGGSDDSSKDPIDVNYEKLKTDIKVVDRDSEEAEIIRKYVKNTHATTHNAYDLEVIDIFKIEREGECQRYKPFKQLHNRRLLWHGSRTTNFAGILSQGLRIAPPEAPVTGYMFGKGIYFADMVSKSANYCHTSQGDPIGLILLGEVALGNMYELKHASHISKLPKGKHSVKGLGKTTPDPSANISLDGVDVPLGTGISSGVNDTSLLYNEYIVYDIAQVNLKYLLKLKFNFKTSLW
PARP assays are conducted using a chemiluminescent PARP assay kit (Trevigen). Briefly, reactions are performed in Histone-coated strip wells, by adding 10 microliters test compound dissolved in 1×PARP Buffer (prepared by mixing 20×PARP buffer diluted with high-purity water) and 15 microliters diluted PARP-HSA enzyme (diluted in 1× PARP buffer, 0.1 unit per well) to 25 microliters PARP cocktail (prepared from 10×PARP cocktail and 10× activated DNA, both 2.5 microliters per well and 20 microliters per well of 1×PARP buffer). The reactions are incubated at ambient temperature for 60 minutes, then the liquid was removed. After washing the wells four times with PBS (200 ul), 50 microliters of STREP-HRP (Horseradish Peroxidase) solution (diluted 500-fold in 1× Strep-Diluent) was added and the reactions were allowed to incubate for 30 minutes at ambient temperature. The liquid was removed and, after washing the wells four times with PBS (200 ul), 50 microliters each of PeroxyGlo A and B (Chemiluminescent Horseradish Peroxidase substrates) are added and the resulting chemiluminescence quantified on the SpectraMax M5 plate reader.
Consider `O=C(Nc1ccccc1C(=O)O)c1ccc2c(c1)[nH]c(=O)c1ccsc12`, for which the inhibition at 1 µM was 12%.

Consider `CC(C)(C)OC(=O)N1CCN(C(=O)c2ccc3c(c2)[nH]c(=O)c2ccsc23)CC1`, for which the inhibition at 1 µM worked out at 72%.

For the compound `O=C(Nc1cccnc1)c1ccc2c(c1)[nH]c(=O)c1ccsc12`, the inhibition at 1 µM is 0%.

In the case of `COC(=O)c1ccc2c3sccc3c(=O)n(CCCO)c2c1`, the inhibition at 1 µM worked out at 40%.

With `COC(=O)c1ccc2c(c1)nc(Cl)c1ccsc12` [drawing 552], the inhibition at 1 µM was determined as 18%.

As to `N#Cc1ccc2c(c1)[nH]c(=O)c1ccsc12`, the inhibition at 1 µM came out at 51%.

Regarding `COc1ccc(CNC(=O)c2ccc3c(c2)[nH]c(=O)c2ccsc23)cc1`, the inhibition at 1 µM worked out at 45%.

With `O=C(c1ccc2c(c1)[nH]c(=O)c1ccsc12)N1CCNCC1`, the inhibition at 1 µM worked out at 96%.

As to `O=C(NC1CC1)c1ccc2c(c1)[nH]c(=O)c1ccsc12`, the inhibition at 1 µM was determined as 69%.

Staying with this assay, now noted: 20 uM; Table 12; read-out: PARP % inhib @ 20 uM.
On to `O=C(Nc1cccnc1)c1ccc2c(c1)[nH]c(=O)c1ccsc12`, for which the inhibition at 20 µM was determined as 62%.

With `O=C(NC1CC1)c1ccc2c(c1)[nH]c(=O)c1ccsc12`, the inhibition at 20 µM came out at 90%.

Still in this assay, the particulars now being: Table 12.
The compound `CC(C)(C)OC(=O)N1CCN(C(=O)c2ccc3c(c2)[nH]c(=O)c2ccsc23)CC1` returned an IC50 of 0.3 µM.

As for `N#Cc1ccc2c(c1)[nH]c(=O)c1ccsc12`, inhibition was half-maximal at 0.5 µM (IC50).

Take `O=C(c1ccc2c(c1)[nH]c(=O)c1ccsc12)N1CCNCC1`: the IC50 came out at 0.03 µM.

For the compound `O=C(NC1CC1)c1ccc2c(c1)[nH]c(=O)c1ccsc12`, the IC50 came out at 0.5 µM.

Staying with this assay, now noted: at 1 μM; Table 10; read-out: PARP Inhibition %.
Take `O=C(O)c1ccc2c(c1)nc(Nc1ccccc1)c1ccccc12`: the inhibition at 1 µM was found to be 9%.

What is called IC50 is the concentration needed to halve the response being measured. The low end stands for higher potency, the high end for lower potency.

Values taken from US9062043B2, “Fused tricyclic compounds as serine-threonine protein kinase and PARP modulators” (SENHWA BIOSCIENCES, INC., priority 2006, dated 2015).
